These are literature values, as cited in patent US11400063B2, “Early administration of low-dose colchicine after myocardial infarction” (INSTITUT DE CARDIOLOGIE DE MONTREAL, priority 2019, dated 2022).

This data set concerns patients with acute coronary syndromes (ACS). As to conditions: COPS, cited from earlier work.

`COc1cc2c(c(OC)c1OC)-c1ccc(OC)c(=O)cc1[C@@H](NC(C)=O)CC2` [Colchicine, colchicine]: the “Cardiovascular mortality, Events %” value is on record as 0.8%; the “Cardiovascular mortality, Events N” value is recorded as 3 N; the “Ischemic stroke, Events %” value is 0.5%; the “Ischemic stroke, Events N” value is given as 2 N. The “Myocardial infarction, Events %” value is listed as 3.7%; the “Myocardial infarction, Events N” value is given as 11 N; the “Primary composite outcome, Events %” value is 4.8%; the “Urgent coronary revascularization, Events %” value was 0.8%. Besides, the “Urgent coronary revascularization, Events N” value was 3 N. For the same molecule, the “Primary composite outcome (cardiovascular mortality, myocardial infarction, ischemic stroke, urgent revascularization), Events N” value (N = 396, median follow-up 12 months) is listed as 19 N. In addition, for the setting “colchicine vs placebo”, the “Cardiovascular mortality, HR (95% CI)” value is listed as 3.09 (0.32-29.71); the “Ischemic stroke, HR (95% CI)” value is reported as 0.34 (0.07-1.70); the “Myocardial infarction, HR (95% CI)” value was 0.52 (0.25-1.07); the “Primary composite outcome, HR (95% CI)” value is reported as 0.47 (0.27-0.82). Further, under “colchicine vs placebo”, the “Urgent coronary revascularization, HR (95% CI)” value is 0.26 (0.07-0.92) and the “all-cause mortality, HR” value was 8.20.
